Results taken from patent publication US7863279B2, “Triazolopyridine carboxamide derivatives and triazolopyrimidine carboxamide derivatives, preparation thereof and therapeutic use thereof” (sanofi-aventis, priority 2007, dated 2011).
pIC50: −log10 of the molar value.

Assays:
[1] = molecular target: T1, FAAH (Fatty Acid Amide Hydrolase) enzyme (Mus musculus, UniProt O08914); assay: Radioenzymatic assay of [3H] anandamide hydrolysis by FAAH; type: biochemical; conditions: mouse brain homogenate; 20 min preincubation; 10 μM anandamide, 20 min at ambient temperature; read-out: IC50 (concentration inhibiting 50% of the control enzyme activity of FAAH)
T1 construct: the source of FAAH enzyme is a homogenate of mouse brain from which the cerebellum and the medulla oblongata have been removed; from tissue; host or cells: mouse brain homogenate (cerebellum and medulla oblongata removed)
T1 sequence (O08914 1-579): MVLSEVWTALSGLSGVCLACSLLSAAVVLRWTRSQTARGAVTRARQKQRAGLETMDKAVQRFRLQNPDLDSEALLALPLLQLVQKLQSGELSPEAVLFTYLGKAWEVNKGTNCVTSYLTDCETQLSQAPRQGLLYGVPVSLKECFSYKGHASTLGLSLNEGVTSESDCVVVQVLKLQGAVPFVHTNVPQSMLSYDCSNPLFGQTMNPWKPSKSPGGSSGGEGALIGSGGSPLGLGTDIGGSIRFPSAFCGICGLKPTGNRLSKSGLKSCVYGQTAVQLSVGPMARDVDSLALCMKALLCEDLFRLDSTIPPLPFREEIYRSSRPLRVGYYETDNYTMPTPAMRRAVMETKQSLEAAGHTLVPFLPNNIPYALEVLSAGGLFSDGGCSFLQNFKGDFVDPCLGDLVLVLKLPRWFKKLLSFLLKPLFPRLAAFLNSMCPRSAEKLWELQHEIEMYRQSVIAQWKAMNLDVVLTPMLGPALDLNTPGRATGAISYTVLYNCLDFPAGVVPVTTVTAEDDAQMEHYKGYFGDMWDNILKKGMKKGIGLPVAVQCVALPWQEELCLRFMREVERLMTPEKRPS
Experimental: Tests comprised measuring the activity, in vitro, of the compounds of the invention on the FAAH enzyme.
The inhibitory activity was measured in a radioenzymatic assay based on measuring the product of hydrolysis (ethanolamine [1-3H]) of anandamide by FAAH (Life Science (1995), 56, 1999-2005 and Journal of Pharmacology and Experimented Therapeutics (1997), 283, 729-734). The products of hydrolysis of [^3H] anandamide, labeled on ethanolamine, are arachidonic acid and [^3H]ethanolamine, and the source of FAAH enzyme is a homogenate of mouse brain from which the cerebellum and the medulla oblongata have been removed. The mouse brains are removed, and stored at −80° C. until they are used, or homogenized immediately for twice 5 seconds using a Precellys apparatus at 5000 rpm (Bertin) in a 10 mM Tris-HCl, 150 mM NaCl, 1 mM EDTA buffer (pH 8) at 4° C. The concentration of the homogenates is then adjusted to 20 μg/μl.
(§1) The dilution series of the compounds is prepared from stock solutions at 20 mM in 100% DMSO. […]
(§2) Assaying of the FAAH activity is carried out in a 96-well microplate in a final reaction volume of 70 μl. […] After stirring for 10 minutes, the microplate is centrifuged for 15 minutes at 4000 g and a 30 μl aliquot of the aqueous phase containing the [^3H]ethanolamine produced is removed and then counted for 5 minutes by liquid scintillation (Wallac 1450 Microbeta).

[2] = molecular target: T2, MGL (monoacyl glycerol lipase) enzyme (Mus musculus, UniProt O35678); assay: Radioenzymatic assay of [3H] 2-oleoyl glycerol hydrolysis by MGL; type: biochemical; conditions: mouse brain homogenate; 20 min preincubation; 50 μM 2-OG, 20 min at ambient temperature; read-out: IC50 (concentration inhibiting 50% of the control enzyme activity of MGL)
T2 construct: the source of MGL enzyme is a homogenate of mouse brain from which the cerebellum and the medulla oblongata have been removed; from tissue; host or cells: mouse brain homogenate (cerebellum and medulla oblongata removed)
T2 sequence (O35678 1-303): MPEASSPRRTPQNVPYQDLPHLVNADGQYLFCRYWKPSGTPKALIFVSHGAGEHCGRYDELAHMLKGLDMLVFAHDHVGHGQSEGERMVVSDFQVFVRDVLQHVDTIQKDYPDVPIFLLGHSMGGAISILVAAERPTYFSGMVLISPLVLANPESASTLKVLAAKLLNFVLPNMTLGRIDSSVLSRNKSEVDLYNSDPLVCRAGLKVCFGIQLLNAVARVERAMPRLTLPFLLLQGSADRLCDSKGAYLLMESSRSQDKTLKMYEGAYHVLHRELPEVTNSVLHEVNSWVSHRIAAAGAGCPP
Experimental: Tests comprised measuring the activity, in vitro, of the compounds of the invention on the MGL enzyme.
The inhibitory activity was measured in a radioenzymatic assay based on measuring the product of hydrolysis of 2-oleoyl glycerol ([^3H] 2-OG) by MGL. The products of hydrolysis of [^3H] 2-OG, labeled on the glycerol, are oleic acid and [^3H] glycerol, and the source of MGL enzyme is a homogenate of mouse brain from which the cerebellum and the medulla oblongata have been removed. The mouse brains are removed, and stored at −80° C. until they are used, or homogenized immediately for twice 5 seconds using a Precellys apparatus at 5000 rpm (Bertin) in a 10 mM Tris-HCl, 150 mM NaCl, 1 mM EDTA buffer (pH 8) at 4° C. The concentration of the homogenates is then adjusted to 7.5 μg/μl.
as §1
as §2, with “MGL” for “FAAH”, “100” for “70”, “[^3H] glycerol” for “[^3H]ethanolamine”, “Microbeta). […]” for “Microbeta).”

| Structure (SMILES) | melting point [°C] | pIC50 [1] | pIC50 [2] |
| --- | --- | --- | --- |
| O=C(N1CCN(c2cccc(C(F)(F)F)c2)CC1)n1nnc2ccc(-c3ccccc3Cl)nc21 [compound 1, [5-(2-chlorophenyl)[1,2,3]triazolo[4,5-b]pyridin-3-yl][4-(3-trifluoromethylphenyl)piperazin-1-yl]methanone] | 69 to 71 | – | – |
| O=C(N1CCN(c2cccc(C(F)(F)F)c2)CC1)n1nnc2ccc(-c3ccsc3)nc21 [compound 5, (5-thiophen-3-yl[1,2,3]triazolo[4,5-b]pyridin-3-yl)[4-(3-trifluoromethylphenyl)piperazin-1-yl]methanone] | 93 to 95 | – | – |
| O=C(N1CCN(c2cccc(C(F)(F)F)c2)CC1)n1nnc2ccc(-c3ccc4ccccc4c3)nc21 [compound 6, (5-naphthalen-2-yl[1,2,3]triazolo[4,5-b]pyridin-3-yl)[4-(3-trifluoromethylphenyl)piperazin-1-yl]methanone] | 90 to 92 | – | – |
| O=C(N1CCN(c2cccc(C(F)(F)F)c2)CC1)n1nnc2ccc(-c3ccoc3)nc21 [compound 4, (5-furan-3-yl[1,2,3]triazolo[4,5-b]pyridin-3-yl)[4-(3-trifluoromethylphenyl)piperazin-1-yl]methanone] | 68 to 70 | – | – |

Second part, the compound after the results:

| melting point [°C] | pIC50 [1] | pIC50 [2] | Structure (SMILES) |
| --- | --- | --- | --- |
| 102 to 104 | – | – | O=C(N1CCN(c2cccc(C(F)(F)F)c2)CC1)n1nnc2ccc(-c3cccc(Cl)c3)nc21 [compound 2, [5-(3-chlorophenyl)[1,2,3]triazolo[4,5-b]pyridin-3-yl][4-(3-trifluoromethylphenyl)piperazin-1-yl]methanone] |
| 139 to 141 | 8.70 | 8.70 | O=C(N1CCN(c2cccc(C(F)(F)F)c2)CC1)n1nnc2ccc(-c3ccc(Cl)cc3)nc21 [Compound No. 3, [5-(4-chlorophenyl)[1,2,3]triazolo[4,5-b]pyridin-3-yl][4-(3-trifluoromethylphenyl)piperazin-1-yl]methanone] |
